This passage reports inhibition and IC50 results from patent US20260152498A1, “4,5,6,7-TETRAHYDRO-1H-PYRAZOLO[4,3-c]PYRIDINE COMPOUNDS AND DERIVATIVES AS USP1 INHIBITORS” (EXELIXIS, INC., priority 2022, published 2026).

The structures appear in SMILES notation.

Usually inhibition stands for how much of the control response was suppressed. Usually IC50 stands for the concentration that gives 50% inhibition. A higher IC50 goes with weaker potency.

The target in experiment [1] is T1, USP1-UAF1 complex (Homo sapiens, UniProt O94782). As to conditions: 1.2 µM.
Protocol: (§1) Biochemical Assay: The compounds were evaluated for their potential to inhibit USP1-UAF1 complex (Boston Biochem, Catalog: E568-050) using a fluorescence-based assay. The final concentrations of USP1-UAF1 complex protein and substrate Ubiquitin-Rhodamine-110 (R&D systems, Catalog U-555-050) used in the assay were 0.45 and 150 nM respectively. 50 mM HEPES pH. 7.5, 100 mM NaCl, 0.5 mM EDTA, 1 mM TCEP, 10% BSA, 0.01% Tween 20 buffer was used in the assay. The total assay volume was 20 μL. […] The final DMSO concentration in the assay was 1%. The compounds were pre-incubated with USP1-UAF1 complex at 25° C. for 15 min. After preincubation, required concentration of substrate was added and incubated at 25° C. for 60 min. Fluorescence at Excitation: 485 nm, Emission: 535 nm was measured in Victor-5 from Perkin Elmer.
(§2) To determine IC50 values, dose response curves were generated by plotting percentage inhibition as a function of inhibitor concentration and the data was fitted to sigmoidal non-linear regression equation (variable slope) using Graph Pad prism software V8.
(§3) The compounds were screened by the above-mentioned assay procedure.
Experiment [2] addresses T1, USP1-UAF1 complex. As to the kind of experiment: biochemical.
Protocol: as §1, §2, §3

T1 sequence (O94782 whole entry): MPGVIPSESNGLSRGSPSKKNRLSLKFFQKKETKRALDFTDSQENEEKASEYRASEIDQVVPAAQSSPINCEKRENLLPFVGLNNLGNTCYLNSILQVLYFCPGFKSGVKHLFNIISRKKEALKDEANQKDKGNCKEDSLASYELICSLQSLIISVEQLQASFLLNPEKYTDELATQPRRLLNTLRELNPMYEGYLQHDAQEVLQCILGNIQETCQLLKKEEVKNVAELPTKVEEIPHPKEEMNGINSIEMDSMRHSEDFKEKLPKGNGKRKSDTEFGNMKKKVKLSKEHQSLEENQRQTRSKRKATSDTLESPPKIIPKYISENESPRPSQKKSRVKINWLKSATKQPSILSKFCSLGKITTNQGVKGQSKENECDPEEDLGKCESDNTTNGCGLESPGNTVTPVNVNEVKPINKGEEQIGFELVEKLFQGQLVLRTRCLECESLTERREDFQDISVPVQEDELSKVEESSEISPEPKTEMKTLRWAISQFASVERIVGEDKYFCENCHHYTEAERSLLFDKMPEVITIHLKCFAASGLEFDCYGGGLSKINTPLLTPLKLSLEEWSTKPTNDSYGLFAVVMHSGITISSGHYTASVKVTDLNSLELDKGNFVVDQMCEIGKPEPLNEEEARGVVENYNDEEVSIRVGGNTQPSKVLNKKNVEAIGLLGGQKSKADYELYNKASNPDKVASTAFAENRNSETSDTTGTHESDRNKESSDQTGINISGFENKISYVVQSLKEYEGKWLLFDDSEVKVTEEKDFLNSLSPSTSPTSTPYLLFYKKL
T1 sequence (Q8TAF3 whole entry partner): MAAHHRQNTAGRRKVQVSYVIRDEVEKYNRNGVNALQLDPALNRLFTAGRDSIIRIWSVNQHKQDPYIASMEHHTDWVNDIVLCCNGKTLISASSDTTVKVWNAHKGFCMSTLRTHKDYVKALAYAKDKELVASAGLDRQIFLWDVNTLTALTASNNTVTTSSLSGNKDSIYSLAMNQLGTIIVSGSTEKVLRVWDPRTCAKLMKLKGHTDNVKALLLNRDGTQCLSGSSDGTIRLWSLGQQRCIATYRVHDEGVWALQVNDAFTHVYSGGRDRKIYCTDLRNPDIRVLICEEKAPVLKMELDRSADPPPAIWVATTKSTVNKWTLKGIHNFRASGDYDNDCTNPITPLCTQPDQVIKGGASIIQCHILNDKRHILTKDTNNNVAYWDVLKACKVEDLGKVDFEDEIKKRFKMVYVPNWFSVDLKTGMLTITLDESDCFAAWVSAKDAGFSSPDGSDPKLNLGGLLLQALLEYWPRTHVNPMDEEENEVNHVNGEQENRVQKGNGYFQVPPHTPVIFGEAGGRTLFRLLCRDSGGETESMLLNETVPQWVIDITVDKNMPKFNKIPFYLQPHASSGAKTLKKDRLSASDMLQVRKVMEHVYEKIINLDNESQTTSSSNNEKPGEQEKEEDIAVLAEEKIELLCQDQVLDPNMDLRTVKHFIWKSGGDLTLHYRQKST

On to `COc1ncnc(C2CC2)c1-c1nn(C)c2c1CN(c1csc(-c3nc(C(F)(F)F)cn3C)n1)CC2` [Compound 50, 4-(3-(4-cyclopropyl-6-methoxypyrimidin-5-yl)-1-methyl-1,4,6,7-tetrahydro-5H-pyrazolo[4,3-c]pyridin-5-yl)-2-(1-methyl-4-(trifluoromethyl)-1H-imidazol-2-yl)thiazole], for which the inhibition in experiment [1] was determined as 20%. Also, the IC50 in experiment [2] was over 100 nM.
`COc1ncnc(C2CC2)c1-c1nn(C)c2c1CN(c1ccc(-c3nc(C(F)(F)F)cn3C3CCC3)cn1)CC2` [Compound 16, 5-(5-(1-cyclobutyl-4-(trifluoromethyl)-1H-imidazol-2-yl)pyridin-2-yl)-3-(4-cyclopropyl-6-methoxypyrimidin-5-yl)-1-methyl-4,5,6,7-tetrahydro-1H-pyrazolo[4,3-c]pyridine] registered an inhibition in experiment [1] of 99%. The same compound had an IC50 in experiment [2] of under 50 nM.
The matching figures for `COc1ncnc(C2CC2)c1-c1nn(C)c2c1CN(c1ccc(-c3nn(C)c4c3CNCC4)cc1)CC2` [Compound 56, 3-(4-cyclopropyl-6-methoxypyrimidin-5-yl)-1-methyl-5-(4-(1-methyl-4,5,6,7-tetrahydro-1H-pyrazolo[4,3-c]pyridin-3-yl)phenyl)-4,5,6,7-tetrahydro-1H-pyrazolo[4,3-c]pyridine]: 5% and over 100 nM.
For `COc1ncccc1-c1ccc(N2CCc3c(c(-c4c(OC)ncnc4C4CC4)nn3C)C2)nc1` [Compound 22, 3-(4-cyclopropyl-6-methoxypyrimidin-5-yl)-5-(2'-methoxy-[3,3′-bipyridin]-6-yl)-1-methyl-4,5,6,7-tetrahydro-1H-pyrazolo[4,3-c]pyridine], the inhibition in experiment [1] worked out at 39%. The same compound registered an IC50 in experiment [2] of over 100 nM.
`COc1ncnc(C2CC2)c1-c1nn(C)c2c1CN(c1ccc(-c3nc(C(F)(F)F)cn3C)nc1)CC2(C)C` [Compound 42, 3-(4-cyclopropyl-6-methoxypyrimidin-5-yl)-1,7,7-trimethyl-5-(6-(1-methyl-4-(trifluoromethyl)-1H-imidazol-2-yl)pyridin-3-yl)-4,5,6,7-tetrahydro-1H-pyrazolo[4,3-c]pyridine] showed an inhibition in experiment [1] of 96%. The IC50 in experiment [2] fell in the range of 50 to 100 nM.
The like results for `Cc1cnn(C(C)C)c1-c1nn(C)c2c1CN(c1ccc(-c3nc(C(F)(F)F)cn3C)nc1)CC2` [Compound 62, 3-(1-isopropyl-4-methyl-1H-pyrazol-5-yl)-1-methyl-5-(6-(1-methyl-4-(trifluoromethyl)-1H-imidazol-2-yl)pyridin-3-yl)-4,5,6,7-tetrahydro-1H-pyrazolo[4,3-c]pyridine] were, in that order, 95% and 50 to 100 nM.
The matching figures for `COc1ncnc(C2CC2)c1-c1nn(C)c2c1CN(c1ccc(-c3nc(C(F)(F)F)cn3C3CN(C)C3)cc1)CC2` [Compound 11, 3-(4-cyclopropyl-6-methoxypyrimidin-5-yl)-1-methyl-5-(4-(1-(1-methylazetidin-3-yl)-4-(trifluoromethyl)-1H-imidazol-2-yl)phenyl)-4,5,6,7-tetrahydro-1H-pyrazolo[4,3-c]pyridine]: 86% and over 100 nM.
In the case of `COc1ncnc(C2CC2)c1-c1nn(C)c2c1CN(c1ccc(-c3c(C)noc3C)cn1)CC2` [Compound 23, 4-(6-(3-(4-cyclopropyl-6-methoxypyrimidin-5-yl)-1-methyl-1,4,6,7-tetrahydro-5H-pyrazolo[4,3-c]pyridin-5-yl)pyridin-3-yl)-3,5-dimethylisoxazole], the inhibition in experiment [1] is 3%. The compound also showed an IC50 in experiment [2] of over 100 nM.
The like results for `COc1nccc(C2CC2)c1-c1nn(C)c2c1CN(c1ccc(-c3nc(C(F)(F)F)cn3C)cc1)CC2` [Compound 60, 3-(4-cyclopropyl-2-methoxypyridin-3-yl)-1-methyl-5-(4-(1-methyl-4-(trifluoromethyl)-1H-imidazol-2-yl)phenyl)-4,5,6,7-tetrahydro-1H-pyrazolo[4,3-c]pyridine] were, in that order, 92% and under 50 nM.
The like results for `COc1ncnc(C2CC2)c1-c1nn(Cc2ccccc2)c2c1CN(c1ccc(-c3nc(C(F)(F)F)cn3C)cc1)CC2` [Compound 36, 1-benzyl-3-(4-cyclopropyl-6-methoxypyrimidin-5-yl)-5-(4-(1-methyl-4-(trifluoromethyl)-1H-imidazol-2-yl)phenyl)-4,5,6,7-tetrahydro-1H-pyrazolo[4,3-c]pyridine] were, in that order, 99% and under 50 nM.
The like results for `CCc1cc(N2CCc3c(c(-c4c(OC)ncnc4C4CC4)nn3C)C2)ccc1-c1nc(C(F)(F)F)cn1C` [Compound 57, 3-(4-cyclopropyl-6-methoxypyrimidin-5-yl)-5-(3-ethyl-4-(1-methyl-4-(trifluoromethyl)-1H-imidazol-2-yl)phenyl)-1-methyl-4,5,6,7-tetrahydro-1H-pyrazolo[4,3-c]pyridine] were, in that order, 87% and over 100 nM.
With `COc1ncnc(C2CC2)c1-c1nn(C)c2c1CN(c1ccc(-c3nc(C(F)(F)F)cn3C3CC3)cc1)CC2` [Compound 7, 5-(4-(1-cyclopropyl-4-(trifluoromethyl)-1H-imidazol-2-yl)phenyl)-3-(4-cyclopropyl-6-methoxypyrimidin-5-yl)-1-methyl-4,5,6,7-tetrahydro-1H-pyrazolo[4,3-c]pyridine], the inhibition in experiment [1] was determined as 100%. In experiment [2], this compound had an IC50 of under 50 nM.
The matching figures for `COc1ncnc(C2CC2)c1-c1nn(C)c2c1CN(c1ccc(-c3nc(C(F)(F)F)cn3C)nc1)CC2C` (centres unmarked) [Compound 39, 3-(4-cyclopropyl-6-methoxypyrimidin-5-yl)-1,7-dimethyl-5-(6-(1-methyl-4-(trifluoromethyl)-1H-imidazol-2-yl)pyridin-3-yl)-4,5,6,7-tetrahydro-1H-pyrazolo[4,3-c]pyridine]: 98% and 50 to 100 nM.
The matching figures for `COc1ncnc(C2CC2)c1-c1nn(C)c2c1CN(c1ccc(-c3nc(C(F)(F)F)cn3C)cc1)CC2` [Compound 1, 3-(4-cyclopropyl-6-methoxypyrimidin-5-yl)-1-methyl-5-(4-(1-methyl-4-(trifluoromethyl)-1H-imidazol-2-yl)phenyl)-4,5,6,7-tetrahydro-1H-pyrazolo[4,3-c]pyridine]: 98% and 50 to 100 nM.
On to `CCn1nc(-c2c(OC)ncnc2C2CC2)c2c1CCN(c1ccc(-c3nc(C(F)(F)F)cn3C)nc1)C2` [Compound 25, 3-(4-cyclopropyl-6-methoxypyrimidin-5-yl)-1-ethyl-5-(6-(1-methyl-4-(trifluoromethyl)-1H-imidazol-2-yl)pyridin-3-yl)-4,5,6,7-tetrahydro-1H-pyrazolo[4,3-c]pyridine], for which the inhibition in experiment [1] was 92%. In addition, the concentration for half-maximal inhibition (IC50) in experiment [2] is over 100 nM.
The matching figures for `COCCn1cc(C(F)(F)F)nc1-c1ccc(N2CCc3c(c(-c4c(OC)ncnc4C4CC4)nn3C)C2)cc1` [Compound 9, 3-(4-cyclopropyl-6-methoxypyrimidin-5-yl)-5-(4-(1-(2-methoxyethyl)-4-(trifluoromethyl)-1H-imidazol-2-yl)phenyl)-1-methyl-4,5,6,7-tetrahydro-1H-pyrazolo[4,3-c]pyridine]: 99% and under 50 nM.
As for `CCOc1cc(N2CCc3c(c(-c4c(OC)ncnc4C4CC4)nn3C)C2)ccc1-c1nc(C(F)(F)F)cn1C` [Compound 47, 3-(4-cyclopropyl-6-methoxypyrimidin-5-yl)-5-(3-ethoxy-4-(1-methyl-4-(trifluoromethyl)-1H-imidazol-2-yl)phenyl)-1-methyl-4,5,6,7-tetrahydro-1H-pyrazolo[4,3-c]pyridine], the inhibition in experiment [1] is 95%. Moreover, the IC50 in experiment [2] is 50 to 100 nM.
`COc1ncnc(C2CC2)c1-c1nn(C2CCC2)c2c1CN(c1ccc(-c3nc(C(F)(F)F)cn3C)cc1)CC2` [Compound 33, 1-cyclobutyl-3-(4-cyclopropyl-6-methoxypyrimidin-5-yl)-5-(4-(1-methyl-4-(trifluoromethyl)-1H-imidazol-2-yl)phenyl)-4,5,6,7-tetrahydro-1 H-pyrazolo[4,3-c]pyridine]: the inhibition in experiment [1] stood at 90%. In experiment [2], the IC50 lay in the range of 50 to 100 nM.
The like results for `COc1ncnc(C2CC2)c1-c1nn(C)c2c1CN(c1ccc(-c3nc(C(F)(F)F)cn3CCN(C)C)cc1)CC2` [Compound 10, 2-(2-(4-(3-(4-cyclopropyl-6-methoxypyrimidin-5-yl)-1-methyl-1,4,6,7-tetrahydro-5H-pyrazolo[4,3-c]pyridin-5-yl)phenyl)-4-(trifluoromethyl)-1H-imidazol-1-yl)-N,N-dimethylethan-1-amine] were, in that order, 88% and over 100 nM.
The matching figures for `COc1ncnc(C2CC2)c1-c1nn(C2CCC2)c2c1CN(c1ccc(-c3nc(C(F)(F)F)cn3C)nc1)CC2` [Compound 34, 1-cyclobutyl-3-(4-cyclopropyl-6-methoxypyrimidin-5-yl)-5-(6-(1-methyl-4-(trifluoromethyl)-1H-imidazol-2-yl)pyridin-3-yl)-4,5,6,7-tetrahydro-1H-pyrazolo[4,3-c]pyridine]: 75% and over 100 nM.
The matching figures for `Cc1cnn(C(C)C)c1-c1nn(C)c2c1CN(c1ccc(-c3nc(C(F)(F)F)cn3C)cc1)CC2` [Compound 61, 3-(1-isopropyl-4-methyl-1H-pyrazol-5-yl)-1-methyl-5-(4-(1-methyl-4-(trifluoromethyl)-1H-imidazol-2-yl)phenyl)-4,5,6,7-tetrahydro-1H-pyrazolo[4,3-c]pyridine]: 98% and under 50 nM.
The compound `COc1ncnc(C2CC2)c1-c1nn(C)c2c1CN(c1ccc(-c3nc(C(F)(F)F)cn3C)cn1)CC2C` (centres unmarked) [Compound 40, 3-(4-cyclopropyl-6-methoxypyrimidin-5-yl)-1,7-dimethyl-5-(5-(1-methyl-4-(trifluoromethyl)-1H-imidazol-2-yl)pyridin-2-yl)-4,5,6,7-tetrahydro-1H-pyrazolo[4,3-c]pyridine] gave an inhibition in experiment [1] of 97%. This compound also had an IC50 in experiment [2] of 50 to 100 nM.
